Key:
[1] = target: T1, NADH:quinone oxidoreductase (NQO), PA1024 (Pseudomonas aeruginosa, UniProt Q9I4V0); experiment: steady-state NADH oxidation at […] nm, ping-pong global fit; type: biochemical; settings: varied NADH; 20 mM KPi, 200 mM NaCl, pH 7.0, 25 °C; read-out: KBQ
T1 construct: full-length gene PA1024 in pET20b(+), expressed in E. coli Rosetta(DE3)pLysS, purified; EC 1.6.5.9

[2] = target: NADH:quinone oxidoreductase (NQO), PA1024 (Pseudomonas aeruginosa, UniProt Q9I4V0, Q80E); settings: read-out: KBQ; varied NADH; 20 mM KPi, 200 mM NaCl, pH 7.0, 25 °C
[3] = target: NADH:quinone oxidoreductase (NQO), PA1024 (Pseudomonas aeruginosa, UniProt Q9I4V0, Q80G); settings: read-out: KBQ; varied NADH; 20 mM KPi, 200 mM NaCl, pH 7.0, 25 °C
[4] = target: T1, NADH:quinone oxidoreductase (NQO), PA1024; experiment: steady-state NADH oxidation at […] nm, Michaelis-Menten fit; type: biochemical; settings: 100 μM NADH fixed (not saturating; apparent; unreliable); 20 mM KPi, 200 mM NaCl, pH 7.0, 25 °C
[5] = target: T1, NADH:quinone oxidoreductase (NQO), PA1024; experiment: UV-visible absorption, FMN extraction by heat denaturation; type: binding; settings: 10 mM Tris-Cl, 200 mM NaCl, 10% glycerol, pH 8.0, 25 °C; stoichiometry of co-purified FMN
[6] = target: T1, NADH:quinone oxidoreductase (NQO), PA1024; experiment: anaerobic stopped-flow flavin reduction at […] nm; type: biochemical; settings: 20 mM KPi, 200 mM NaCl, pH 7.0, 25 °C, unreliable (upper-bound estimate, saturated at lowest NADH)
[7] = target: T1, NADH:quinone oxidoreductase (NQO), PA1024; experiment: anaerobic flavin reduction, absorption spectra; type: biochemical; settings: 500 μM NADPH, pH 7, 25 °C, poor substrate

T1 sequence (Q9I4V0 whole entry): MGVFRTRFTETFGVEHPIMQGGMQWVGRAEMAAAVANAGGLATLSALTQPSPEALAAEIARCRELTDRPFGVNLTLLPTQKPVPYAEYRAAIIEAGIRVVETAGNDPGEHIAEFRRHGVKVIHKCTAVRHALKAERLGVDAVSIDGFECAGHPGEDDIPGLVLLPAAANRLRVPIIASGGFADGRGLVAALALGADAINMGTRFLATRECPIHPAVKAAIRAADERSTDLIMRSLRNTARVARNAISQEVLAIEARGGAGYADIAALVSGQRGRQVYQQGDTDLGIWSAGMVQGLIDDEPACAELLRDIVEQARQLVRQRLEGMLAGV
Sequence of NADH:quinone oxidoreductase (NQO), PA1024 (Pseudomonas aeruginosa, UniProt Q9I4V0, Q80G) (Q9I4V0 whole entry Q80G): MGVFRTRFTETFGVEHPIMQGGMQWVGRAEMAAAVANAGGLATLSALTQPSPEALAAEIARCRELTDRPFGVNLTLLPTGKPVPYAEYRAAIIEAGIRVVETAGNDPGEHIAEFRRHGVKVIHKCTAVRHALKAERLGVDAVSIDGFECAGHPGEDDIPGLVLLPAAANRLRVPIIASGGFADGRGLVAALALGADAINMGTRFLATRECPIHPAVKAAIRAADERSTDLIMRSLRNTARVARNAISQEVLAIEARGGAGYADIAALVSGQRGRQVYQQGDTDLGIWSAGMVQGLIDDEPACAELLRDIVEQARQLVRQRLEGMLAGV
Sequence of NADH:quinone oxidoreductase (NQO), PA1024 (Pseudomonas aeruginosa, UniProt Q9I4V0, Q80E) (Q9I4V0 whole entry Q80E): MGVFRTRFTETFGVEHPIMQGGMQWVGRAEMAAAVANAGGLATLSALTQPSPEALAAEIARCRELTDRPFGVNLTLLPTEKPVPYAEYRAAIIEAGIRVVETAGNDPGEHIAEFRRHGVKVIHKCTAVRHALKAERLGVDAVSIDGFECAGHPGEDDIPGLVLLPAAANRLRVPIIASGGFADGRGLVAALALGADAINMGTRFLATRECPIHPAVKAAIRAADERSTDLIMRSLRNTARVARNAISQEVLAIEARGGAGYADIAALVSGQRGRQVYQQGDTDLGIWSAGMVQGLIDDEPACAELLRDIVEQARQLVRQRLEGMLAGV

`O=C1C=CC(=O)C=C1` [1,4-benzoquinone] gave a Km [1] of 30 ± 1 µM, a Km [2] of 15 ± 1 µM and a Km [3] of 20 ± 1 µM.
`COC1=C(OC)C(=O)C(C)=CC1=O` [2,3-dimethoxy-5-methyl-1,4-benzoquinone] was tested, and the “^app(Km)” value [4] was 60 ± 1 µM.
`CC1=CC(=O)C=CC1=O` [2-methyl-1,4-benzoquinone] was tested, and the “^app(Km)” value [4] was 96 ± 1 µM.
For `O=C1C=CC(=O)c2c(O)cccc21` [5-hydroxy-1,4-naphthoquinone], the “^app(Km)” value [4] was 21 ± 1 µM.
Compound `Cc1cc2nc3c(=O)[nH]c(=O)nc-3n(C[C@H](O)[C@H](O)[C@H](O)COP(=O)(O)O)c2cc1C` [FMN] has an FMN/Protein [5] of 0.40.
`NC(=O)C1=CN([C@@H]2O[C@H](COP(=O)(O)OP(=O)(O)OC[C@H]3O[C@@H](n4cnc5c(N)ncnc54)[C@H](O)[C@@H]3O)[C@@H](O)[C@H]2O)C=CC1` [NADH] was tested, and the “Kd (μM)” value [6] was “<= ≤ 3 μM”.
In the case of `NC(=O)C1=CN([C@@H]2O[C@H](COP(=O)(O)OP(=O)(O)OC[C@H]3O[C@@H](n4cnc5c(N)ncnc54)[C@H](OP(=O)(O)O)[C@@H]3O)[C@@H](O)[C@H]2O)C=CC1` [NADPH], the “% flavin reduction over 10 min at 500 μM” value [7] is reported as ~ 10%.

Reference: publication PMC10033279 (The Journal of Biological Chemistry, 2023)
